Reference: patent US10407428B2, “Spiro-isoquinoline-1,4′-piperidine compounds having multimodal activity against pain” (ESTEVE PHARMACEUTICALS, S.A., priority 2014, dated 2019)
pKi: −log10 of the molar value. Where two headings read alike, the source gives them in different places.

Tested on: human σ1 receptor and human μ-opioid receptor
Experiment: Human σ1 receptor radioligand assay and human μ-opioid receptor radioligand assay (μ and σ1 dual binding)
Design: key to μ and σ1 dual binding: +: Both Ki-μ and Ki-σ1>=500 nM; ++: One Ki<500 nM while the other Ki is >=500 nM; +++: Both Ki-μ and Ki-σ1<500 nM; ++++: Both Ki-μ and Ki-σ1<100 nM
[1] = combined class for Ki-μ ([3H]-DAMGO, CHO-K1 membranes) and Ki-σ1 ([3H](+)-pentazocine, HEK-293 membranes)

SMILES	μ and σ1 dual binding	pKi	also measured
CN1Cc2ccccc2C12CCN(CC1CCOCC1)CC2 [Example 141, 2-Methyl-1′-((tetrahydro-2H-pyran-4-yl)methyl)spiro[isoindoline-1,4′-piperidine]]	++	–	–
CN1CCc2ccccc2C12CCN(CC(=O)N1CCCOCC1)CC2 [Example 57, 2-(2-methyl-3,4-dihydro-2H-spiro[isoquinoline-1,4′-piperidine]-1′-yl)-1-(1,4-oxazepan-4-yl)ethanone]	++	–	–
CC(C)N(C(=O)CN1CCC2(CC1)c1ccccc1CCN2C)C(C)C [Example 102, N,N-diisopropyl-2-(2-methyl-3,4-dihydro-2H-spiro[isoquinoline-1,4′-piperidine]-1′-yl)acetamide]	++	–	–
CN1CCc2ccccc2C12CCN(CC(=O)N1CCC(F)(F)CC1)CC2 [Example 61, 1-(4,4-difluoropiperidin-1-yl)-2-(2-methyl-3,4-dihydro-2H-spiro[isoquinoline-1,4′-piperidine]-1′-yl)ethanone]	–	> 6.30	–
CCN1CCc2ccccc2C12CCN(CC(=O)N(C)C)CC2 [Example 153, 2-(2-ethyl-3,4-dihydro-2H-spiro[isoquinoline-1,4′-piperidine]-1′-yl)-N,N-dimethylacetamide]	++	–	–
FC(F)(F)CN1CCc2ccccc2C12CCN(CCc1ccccc1)CC2 [Example 133, 1′-Phenethyl-2-(2,2,2-trifluoroethyl)-3,4-dihydro-2H-spiro[isoquinoline-1,4′-piperidine]]	–	> 7.00	–
CN1CCc2ccccc2C12CCN(CCN1CCCCC1)CC2 [Example 79, 2-methyl-1′-(2-(piperidin-1-yl)ethyl)-3,4-dihydro-2H-spiro[isoquinoline-1,4′-piperidine]]	–	> 6.30	–
CCN1CCc2ccccc2C12CCN(CC(=O)N1CCCC(F)(F)C1)CC2 [Example 151, 1-(3,3-difluoropiperidin-1-yl)-2-(2-ethyl-3,4-dihydro-2H-spiro[isoquinoline-1,4′-piperidine]-1′-yl)ethanone]	–	> 6.30	–
CCC(CC)N(C)C(=O)CN1CCC2(CC1)c1ccccc1CCN2CC [Example 152, 2-(2-ethyl-3,4-dihydro-2H-spiro[isoquinoline-1,4′-piperidine]-1′-yl)-N-methyl-N-(pentan-3-yl)acetamide]	++	–	–
CC(=O)N1CCc2ccccc2C12CCN(CCC(=O)N(C)c1ccccc1)CC2 [Example 35, 3-(2-acetyl-3,4-dihydro-2H-spiro[isoquinoline-1,4′-piperidine]-1′-yl)-N-methyl-N-phenylpropanamide]	++	–	–
CN1CCc2ccccc2C12CCN(CC(=O)N1CC[C@H](F)C1)CC2 [Example 94, (S)-1-(3-fluoropyrrolidin-1-yl)-2-(2-methyl-3,4-dihydro-2H-spiro[isoquinoline-1,4′-piperidine]-1′-yl)ethanone]	++	–	–
CN1CCc2ccccc2C12CCN(Cc1ccncc1)CC2 [Example 83, 2-methyl-1′-(pyridin-4-ylmethyl)-3,4-dihydro-2H-spiro[isoquinoline-1,4′-piperidine]]	++	–	–
CN1CCc2ccccc2C12CCN(C[C@@H](O)c1ccncc1)CC2 [Example 100, (S)-2-(2-methyl-3,4-dihydro-2H-spiro[isoquinoline-1,4′-piperidine]-1′-yl)-1-(pyridin-4-yl)ethanol]	–	> 6.30	–
CN1CCc2ccccc2C12CCN(CC(O)c1ccncc1F)CC2 (stereo not shown) [Example 113, 1-(3-fluoropyridin-4-yl)-2-(2-methyl-3,4-dihydro-2H-spiro[isoquinoline-1,4′-piperidine]-1′-yl)ethanol]	–	> 6.30	–
CN1CCc2ccccc2C12CCN(CCN1CCOCC1)CC2 [Example 65, 4-(2-(2-Methyl-3,4-dihydro-2H-spiro[isoquinoline-1,4′-piperidine]-1′-yl)ethyl)morpholine]	–	> 6.30	–
CC(C)CN(C)C(=O)CN1CCC2(CC1)c1ccccc1CCN2C [Example 87, N-isobutyl-N-methyl-2-(2-methyl-3,4-dihydro-2H-spiro[isoquinoline-1,4′-piperidine]-1′-yl)acetamide]	++	–	–
CN1CCc2ccccc2C12CCN(CCNCCO)CC2 [Example 160, 2-(2-(2-Methyl-3,4-dihydro-2H-spiro[isoquinoline-1,4′-piperidine]-1′-yl)ethylamino)ethanol]	–	–	pKi [1]: ≤ 6.30
OCCN1CCc2ccccc2C12CCN(CCc1cncc(F)c1)CC2 [Example 127, 2-(1′-(2-(5-fluoropyridin-3-yl)ethyl)-3,4-dihydro-2H-spiro[isoquinoline-1,4′-piperidin]-2-yl)etanol]	–	> 6.30	–
CCN1CCc2ccccc2C12CCN(CCc1ccccc1)CC2 [Example 63, 2-Ethyl-1′-phenethyl-3,4-dihydro-2H-spiro[isoquinoline-1,4′-piperidine]]	–	> 7.00	–
CN1CC(C)(C)c2ccccc2C12CCN(CC(=O)N1CCCCC1)CC2 [Example 138, 1-(Piperidin-1-yl)-2-(2,4,4-trimethyl-3,4-dihydro-2H-spiro[isoquinoline-1,4′-piperidine]-1′-yl)ethanone]	–	–	pKi [1]: ≤ 6.30

SMILES	μ and σ1 dual binding	pKi	also measured
CC(=O)OC(CN1CCC2(CC1)c1ccccc1CCN2C(C)=O)c1ccccc1 (stereo not shown) [Example 39, 2-(2-Acetyl-3,4-dihydro-2H-spiro[isoquinoline-1,4′-piperidine]-1′-yl)-1-phenylethyl acetate]	–	–	pKi [1]: ≤ 6.30
CC(=O)N1CCc2ccccc2C12CCN(CCN(C)C(=O)OC(C)(C)C)CC2 [Example 46, tert-Butyl 2-(2-acetyl-3,4-dihydro-2H-spiro[isoquinoline-1,4′-piperidine]-1′-yl)ethyl(methyl)carbamate]	–	–	pKi [1]: ≤ 6.30
COC1CCN(C(=O)CN2CCC3(CC2)c2ccccc2CCN3C)CC1 [Example 60, 1-(4-methoxypiperidin-1-yl)-2-(2-methyl-3,4-dihydro-2H-spiro[isoquinoline-1,4′-piperidine]-1′-yl)ethanone]	++	–	–
COCCN1CCc2ccccc2C12CCN(CCc1cccnc1)CC2 [Example 124, 2-(2-Methoxyethyl)-1′-(2-(pyridin-3-yl)ethyl)-3,4-dihydro-2H-spiro[isoquinoline-1,4′-piperidine]]	–	–	pKi [1]: ≤ 6.30
CC(C)N(C)C(=O)CN1CCC2(CC1)c1ccccc1CCN2C [Example 103, N-isopropyl-N-methyl-2-(2-methyl-3,4-dihydro-2H-spiro[isoquinoline-1,4′-piperidine]-1′-yl)acetamide]	–	> 6.30	–
CC(=O)N1CCc2ccccc2C12CCN(CCOCC1CC1)CC2 [Example 30, 1-(1′-(2-(cyclopropylmethoxy)ethyl)-3,4-dihydro-2H-spiro[isoquinoline-1,4′-piperidine]-2-yl)ethanone]	–	> 6.30	–
CC(=O)N1CCc2ccccc2C12CCN(CC1CCOCC1)CC2 [Example 9, 1-(1′-((tetrahydro-2H-pyran-4-yl)methyl)-3,4-dihydro-2H-spiro[isoquinoline-1,4'-piperidine]-2-yl)ethanone]	++	–	–
OCCN1CCc2ccccc2C12CCN(CCc1cccnc1)CC2 [Example 125, 2-[1′-(2-Pyridin-3-yl-ethyl)-3,4-dihydro-spiro[isoquinoline-1,4′-piperidin]-2-yl]-ethanol]	–	> 6.30	–
CN1CCc2ccccc2C12CCN(CC(=O)N1CCCC(F)(F)C1)CC2 [Example 88, 1-(3,3-difluoropiperidin-1-yl)-2-(2-methyl-3,4-dihydro-2H-spiro[isoquinoline-1,4′-piperidine]-1′-yl)ethanone]	++	–	–
CC(=O)N1CCc2ccccc2C12CCN(CCC(=O)N(C)C)CC2 [Example 22, 3-(2-acetyl-3,4-dihydro-2H-spiro[isoquinoline-1,4′-piperidine]-1′-yl)-N,N-dimethylpropanamide]	–	–	pKi [1]: ≤ 6.30
CN1Cc2ccccc2C12CCN(CC(=O)N1CCC(F)(F)CC1)CC2 [Example 156, 1-(4,4-difluoropiperidin-1-yl)-2-(2-methylspiro[isoindoline-1,4′-piperidine]-1′-yl)ethanone]	–	–	pKi [1]: ≤ 6.30
CCN1CCc2ccccc2C12CCN(CC(O)c1ccncc1)CC2 (stereo not shown) [Example 146, 2-(2-ethyl-3,4-dihydro-2H-spiro[isoquinoline-1,4′-piperidine]-1′-yl)-1-(pyridin-4-yl)ethanol]	++	–	–
FC(F)(F)CN1CCc2ccccc2C12CCN(CCc1cccnc1)CC2 [Example 137, 1′-(2-(pyridin-3-yl)ethyl)-2-(2,2,2-trifluoroethyl)-3,4-dihydro-2H-spiro[isoquinoline-1,4′-piperidine]]	–	> 6.30	–
CN1CCc2ccccc2C12CCN(C[C@H](O)c1ccncc1F)CC2 [Example 142, (R)-1-(3-fluoropyridin-4-yl)-2-(2-methyl-3,4-dihydro-2H-spiro[isoquinoline-1,4′-piperidine]-1′-yl)ethanol]	–	> 6.30	–
COCCN1CCc2ccccc2C12CCN(CCc1ccccc1)CC2 [Example 122, 2-(2-Methoxyethyl)-1′-phenethyl-3,4-dihydro-2H-spiro[isoquinoline-1,4′-piperidine]]	–	> 6.30	–
CC(=O)N1CCc2ccccc2C12CCN(CCOc1ccccc1)CC2 [Example 20, 1-(1′-(2-phenoxyethyl)-3,4-dihydro-2H-spiro[isoquinoline-1,4′-piperidine]-2-yl)ethanone]	++	–	–
CN1CCc2ccccc2C12CCN(CC(=O)c1ccccc1)CC2 [Example 69, 2-(2-methyl-3,4-dihydro-2H-spiro[isoquinoline-1,4′-piperidine]-1′-yl)-1-phenylethanone]	–	> 6.30	–
O=C(CN1CCC2(CC1)c1ccccc1CCN2CC(F)(F)F)N1CCOCC1 [Example 134, 1-Morpholino-2-(2-(2,2,2-trifluoroethyl)-3,4-dihydro-2H-spiro[isoquinoline-1,4′-piperidine]-1′-yl)ethanone]	++	–	–
CC(=O)N1CCc2ccccc2C12CCN(CCOc1ccncc1)CC2 [Example 44, 1-(1′-(2-(pyridin-4-yloxy)ethyl)-3,4-dihydro-2H-spiro[isoquinoline-1,4′-piperidine]-2-yl)ethanone]	++	–	–
CC(=O)N1CCc2ccccc2C12CCN(CCOCC(C)C)CC2 [Example 31]	–	> 6.30	–
